One data set addresses T1, Human GLP-1 receptor (Homo sapiens, UniProt P43220).
T1 construct: The full-length cDNA was cloned in pcDNA3.1(+); expressed in transfected cells
It is filed as cell-based. How it is done: The novel peptidomimetics were screened for Human GLP-1 receptor (HGLP-1 R) agonist activity (in vitro), using the cAMP cell-based assay, in stably transfected CHO/human GLP1R cells. […] CHO cells were grown in Ham's F12 medium containing L-Glutamine (2 mM), HEPES (25 mM), NaHCO3 (1.1 g/L) and supplemented with NewBorn Calf Serum (NBCS; 10%), Penicillin (50 U/ml (v/v)) and Streptomycin (50 ug/ml (v/v)). Cells were split every 3 days 1:8.
The cDNA encoding the human GLP-1 receptor was isolated by RT-PCR according to standard protocol. The full-length cDNA was cloned in pcDNA3.1(+). […] Clones expressing the receptor were generated by G418 (800 μg/ml active, Sigma) selection. The stable clones were thereafter maintained at 500 ug/ml (G418). The selected clone was used between passages 9-25 for cAMP assays.
The trypsin was inactivated using Ham's F12 medium containing 10% NBCS and the cells were suspended in 2 ml of complete medium. […] The medium was aspirated off from the 12 well plate and the cells were washed once using Ham's F12 (plain). […] The cells were incubated with the test compounds for 30 min in humidified atmosphere and 37° C. After the incubation, the medium was removed and cells were washed once with plain Ham's F12. Subsequently, the cells were lysed by adding 500 ul of ice cold 0.1 N HCl to each well and shaking for 30 minutes at 200 rpm. […] The total cAMP was estimated from the sample according to the manufacturer's protocol using Cyclic AMP immunoassay kit (R&D systems, Minneapolis. MN). The remaining supernatant is used to determine the protein concentration using micro BCA (Sigma). Data is calculated as percent of control (Vehicle: water) and expressed as Mean±SD.

For a further data set, the target named is DPP IV (Homo sapiens, UniProt P27487). Put plainly: Stability against DPP IV enzyme. The class given is in vitro ADME. Particulars: 2 μM, 37° C.; for half-life: read-out: half-life (t1/2) with DPP-IV enzyme. How it is done:
(§1) Reactions were terminated by the addition of TFA/H2O (15 mL, 10% (v/v)). […] The column was equilibrated with TFA/H2O, at a flow rate of 1 mL/min. […] The absorbance was monitored at 206 nm using UV detector and peaks were collected manually prior to ESI-MS analysis.

Data set [1] is described as follows: Stability in human plasma. The class given is in vitro ADME. Particulars: 2 μM, 37° C.; for half-life: human, plasma, read-out: half-life (t1/2) in human plasma. The method, then: as §1
A short description of data set [2]: Stability in simulated gastric fluid. The class given is in vitro ADME. The note with it: 2 μM, 37° C., pH 1.5, pepsin; for half-life: simulated gi fluid, read-out: half-life (t1/2) in simulated gastric fluid. How it is done: as §1
Data set [3] in a line: Stability in simulated intestinal fluid. The class given is in vitro ADME. Particulars: 2 μM, 37° C., pH 7.5; for half-life: simulated gi fluid, read-out: half-life (t1/2) in simulated intestinal fluid. The method, then: as §1
Data set [4] is described as follows: Stability against liver microsomes. Particulars: 2 μM, 37° C.; for half-life: human, microsomes, read-out: half-life (t1/2) with liver microsomes. It is filed as in vitro ADME, human. The method, then:
as §1
(Liver microsomes are a subcellular fraction often used to study metabolism.)

Like-named read-outs stand apart in the source and are kept apart here. Bounds are passed on as bounds.

DPP IV, sequence (P27487 whole entry, species assumed): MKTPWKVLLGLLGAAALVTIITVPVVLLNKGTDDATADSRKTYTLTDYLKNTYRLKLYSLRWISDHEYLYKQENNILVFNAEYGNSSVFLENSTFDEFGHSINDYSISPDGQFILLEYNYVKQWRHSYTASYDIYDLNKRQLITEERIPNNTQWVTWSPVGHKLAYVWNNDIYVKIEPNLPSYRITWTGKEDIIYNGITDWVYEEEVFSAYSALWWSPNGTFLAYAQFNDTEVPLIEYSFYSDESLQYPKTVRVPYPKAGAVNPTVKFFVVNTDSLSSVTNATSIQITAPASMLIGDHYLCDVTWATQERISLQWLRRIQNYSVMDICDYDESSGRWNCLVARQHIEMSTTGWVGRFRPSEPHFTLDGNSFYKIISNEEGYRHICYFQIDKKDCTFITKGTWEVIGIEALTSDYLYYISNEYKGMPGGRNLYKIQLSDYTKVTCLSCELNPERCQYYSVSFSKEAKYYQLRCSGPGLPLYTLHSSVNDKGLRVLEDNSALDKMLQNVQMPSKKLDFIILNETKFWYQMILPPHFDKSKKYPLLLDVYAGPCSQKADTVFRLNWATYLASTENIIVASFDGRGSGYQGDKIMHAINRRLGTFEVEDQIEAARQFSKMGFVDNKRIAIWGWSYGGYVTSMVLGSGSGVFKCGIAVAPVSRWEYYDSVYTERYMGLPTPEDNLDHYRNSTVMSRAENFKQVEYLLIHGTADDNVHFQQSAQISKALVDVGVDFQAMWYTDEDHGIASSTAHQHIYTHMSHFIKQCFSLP
T1 sequence (P43220 24-463): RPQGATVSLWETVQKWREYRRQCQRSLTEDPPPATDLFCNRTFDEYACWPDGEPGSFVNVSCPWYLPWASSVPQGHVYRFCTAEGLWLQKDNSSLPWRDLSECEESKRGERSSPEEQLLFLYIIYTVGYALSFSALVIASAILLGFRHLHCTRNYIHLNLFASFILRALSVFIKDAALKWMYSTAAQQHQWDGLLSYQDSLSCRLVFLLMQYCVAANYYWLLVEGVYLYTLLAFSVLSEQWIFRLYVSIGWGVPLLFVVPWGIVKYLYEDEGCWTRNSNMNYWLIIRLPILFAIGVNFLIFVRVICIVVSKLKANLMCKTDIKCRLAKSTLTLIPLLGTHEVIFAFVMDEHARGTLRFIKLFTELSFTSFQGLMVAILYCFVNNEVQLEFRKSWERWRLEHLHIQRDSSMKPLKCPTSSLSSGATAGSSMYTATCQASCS

In the case of `CCc1cc(OC)ccc1-c1ccc(CC(NC(=O)[C@H](CC(=O)O)NC(=O)[C@H](CO)NC(=O)[C@@H](NC(=O)C(C)(Cc2ccccc2F)NC(=O)[C@@H](NC(=O)CNC(=O)[C@H](CCC(N)=O)NC(=O)C(C)(C)NC(=O)[C@@H](N)Cc2c[nH]cn2)[C@@H](C)O)[C@@H](C)O)C(=O)NC(Cc2ccc(-c3ccccc3C(F)(F)F)cc2)C(N)=O)cc1` (single isomer, unassigned) [compound 32], the “Human GLP-1 R activity (cAMP release), % activity with respect to control” value on Human GLP-1 receptor (1 nM test compound) is reported as 99 ± 0.06%; at Human GLP-1 receptor (10 nM test compound) it was 99 ± 0.06%; at Human GLP-1 receptor (100 nM test compound), 99 ± 0.08%; on Human GLP-1 receptor (1 μM test compound) it was 99 ± 0.10%; at Human GLP-1 receptor (10 μM test compound), 99 ± 0.12%. The “% degradation in 24 h when incubated with DPP-IV enzyme” value (“% degradation … with DPP-IV enzyme” for short) on DPP IV stood at 00%. In addition, the half-life (at DPP IV; in data set [1]; in data set [2]; in data set [3]) was greater than 24 h throughout. For the same compound, the “% degradation in 24 h when incubated with human plasma” value (“% degradation … with human plasma” for short) in data set [1] is listed as 00%. In addition, the “% degradation in 24 h when incubated with simulated gastric fluid” value (“% degradation … with simulated gastric fluid” below) in data set [2] is on record as 00%. Besides, the “% degradation in 24 h when incubated with simulated intestinal fluid” value (from here on “% degradation … with simulated intestinal fluid”) in data set [3] is 00%. Further, the “half-life (t1/2) with liver microsomes” value in data set [4] is “(5) h”. Also, in data set [4], the “% degradation in 24 h when incubated with liver microsomes” value (from here on “% degradation … with liver microsomes”) was determined as 32%.

Consider `CCc1cc(OC)ccc1-c1ccc(CC(NC(=O)[C@H](CC(=O)O)NC(=O)[C@H](CO)NC(=O)[C@@H](NC(=O)[C@H](Cc2ccccc2)NC(=O)[C@@H](NC(=O)CNC(=O)[C@H](CCC(N)=O)NC(=O)C2(NC(=O)[C@@H](N)Cc3c[nH]cn3)CC2)[C@@H](C)O)[C@@H](C)O)C(=O)NC(Cc2ccc(-c3ccccc3F)cc2)C(N)=O)cc1` (single isomer, unassigned) [compound 19], for which the “Human GLP-1 R activity (cAMP release), % activity with respect to control” value at Human GLP-1 receptor (1 nM test compound) stood at 96 ± 0.02%; on Human GLP-1 receptor (10 nM test compound), 99 ± 0.46%; on Human GLP-1 receptor (100 nM test compound), 99 ± 0.41%; at Human GLP-1 receptor (1 μM test compound) it was 99 ± 0.66%; on Human GLP-1 receptor (10 μM test compound) it was 99 ± 0.03%. Moreover, the “% degradation … with DPP-IV enzyme” value on DPP IV is 00%. The half-life was greater than 24 h at DPP IV; greater than 24 h in data set [1]; 4 h in data set [2]; greater than 24 h in data set [3]; 2 h in data set [4]. Besides, the “% degradation … with human plasma” value in data set [1] was determined as 00%. Also, the “% degradation … with simulated gastric fluid” value in data set [2] is 43%. Moreover, the “% degradation … with simulated intestinal fluid” value in data set [3] is reported as 00%. Also, in data set [4], the “% degradation … with liver microsomes” value was found to be 84%.

As to `CCc1cc(OC)ccc1-c1ccc(CC(NC(=O)[C@H](CC(=O)O)NC(=O)[C@H](CO)NC(=O)[C@@H](NC(=O)[C@H](Cc2ccccc2)NC(=O)[C@@H](NC(=O)CNC(=O)[C@H](CCC(N)=O)NC(=O)C(C)(C)NC(=O)[C@@H](N)Cc2c[nH]cn2)[C@@H](C)O)[C@@H](C)O)C(=O)NC(Cc2ccc(-c3ccccc3C)cc2)C(N)=O)cc1` (single isomer, unassigned) [compound 13], the “Human GLP-1 R activity (cAMP release), % activity with respect to control” value on Human GLP-1 receptor (1 nM test compound) was found to be 60 ± 0.12%; on Human GLP-1 receptor (10 nM test compound), 92 ± 0.15%; on Human GLP-1 receptor (100 nM test compound), 98 ± 0.18%; on Human GLP-1 receptor (1 μM test compound), 99 ± 0.03%; on Human GLP-1 receptor (10 μM test compound), 99 ± 0.09%. In addition, on DPP IV, the “% degradation … with DPP-IV enzyme” value is recorded as 00%. The half-life was greater than 24 h on DPP IV; greater than 24 h in data set [1]; 4 h in data set [2]; greater than 24 h in data set [3]; 2 h in data set [4]. Further, in data set [1], the “% degradation … with human plasma” value is 00%. Besides, the “% degradation … with simulated gastric fluid” value in data set [2] was 50%. For the same compound, the “% degradation … with simulated intestinal fluid” value in data set [3] was 00%. Further, the “% degradation … with liver microsomes” value in data set [4] was determined as 86%.

`CCc1cc(OC)ccc1-c1ccc(CC(NC(=O)[C@H](CC(=O)O)NC(=O)[C@H](CO)NC(=O)[C@@H](NC(=O)C(C)(Cc2ccccc2F)NC(=O)[C@@H](NC(=O)CNC(=O)[C@H](CCC(N)=O)NC(=O)C(C)(C)NC(=O)[C@@H](N)Cc2c[nH]cn2)[C@@H](C)O)[C@@H](C)O)C(=O)NC(Cc2ccc(-c3ccccc3C)cc2)C(N)=O)cc1` (single isomer, unassigned) [compound 29]: the “Human GLP-1 R activity (cAMP release), % activity with respect to control” value on Human GLP-1 receptor (1 nM test compound) came out at 99 ± 0.12%; at Human GLP-1 receptor (10 nM test compound) it was 99 ± 0.15%; at Human GLP-1 receptor (100 nM test compound), 99 ± 0.18%; on Human GLP-1 receptor (1 μM test compound), 99 ± 0.03%; on Human GLP-1 receptor (10 μM test compound), 99 ± 0.09%. In addition, on DPP IV, the “% degradation … with DPP-IV enzyme” value worked out at 00%. Further, the half-life (on DPP IV; in data set [1]; in data set [2]; in data set [3]) was greater than 24 h throughout. For the same compound, the “% degradation … with human plasma” value in data set [1] is recorded as 00%. For the same compound, in data set [2], the “% degradation … with simulated gastric fluid” value was 00%. Besides, in data set [3], the “% degradation … with simulated intestinal fluid” value is 00%. The “half-life (t1/2) with liver microsomes” value in data set [4] is “(5) h”. The “% degradation … with liver microsomes” value in data set [4] was 35%.

For the compound `CCc1cc(OC)ccc1-c1ccc(CC(NC(=O)[C@H](CC(=O)O)NC(=O)[C@H](CO)NC(=O)[C@@H](NC(=O)C(C)(Cc2ccccc2F)NC(=O)[C@@H](NC(=O)CNC(=O)[C@H](CCC(N)=O)NC(=O)C2(NC(=O)[C@@H](N)Cc3c[nH]cn3)CC2)[C@@H](C)O)[C@@H](C)O)C(=O)NC(Cc2ccc(-c3ccccc3C)cc2)C(N)=O)cc1` (single isomer, unassigned) [compound 33], the “Human GLP-1 R activity (cAMP release), % activity with respect to control” value at Human GLP-1 receptor (1 nM test compound) turned out to be 99 ± 0.11%; on Human GLP-1 receptor (10 nM test compound), 99 ± 0.13%; on Human GLP-1 receptor (100 nM test compound) it was 99 ± 0.16%; at Human GLP-1 receptor (1 μM test compound) it was 99 ± 0.06%; at Human GLP-1 receptor (10 μM test compound), 99 ± 0.10%. Further, the “% degradation … with DPP-IV enzyme” value on DPP IV worked out at 00%. In addition, the half-life (at DPP IV; in data set [1]; in data set [2]; in data set [3]) was greater than 24 h in each case. Besides, the “% degradation … with human plasma” value in data set [1] worked out at 00%. The “% degradation … with simulated gastric fluid” value in data set [2] is on record as 00%. The “% degradation … with simulated intestinal fluid” value in data set [3] is on record as 00%. The “half-life (t1/2) with liver microsomes” value in data set [4] is listed as “(5) h”. For the same compound, the “% degradation … with liver microsomes” value in data set [4] was 33%.

The values above are taken from patent publication US8841413B2, “Antidiabetic compounds” (Cadila Healthcare Limited, priority 2006, dated 2014).
